The record followed here is patent US11591341B2 (ALIGOS THERAPEUTICS, INC., priority 2019, dated 2023).

The structures appear in SMILES notation.

This experiment deals with HBV. Nature of the experiment: HBV-DNA Antiviral Assay Using HepG2.117 Cells (intracellular HBV DNA by qPCR). The class given is cell-based, hepatitis B virus (genotype D). The settings on record: Hepatitis B virus, HepG2.117. The method in brief: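 Endpoint: qPCR copy number of intracellular HBV DNA after 3-day compound exposure, with inhibition set relative to the 2% DMSO control. The cells were doxycycline-free HepG2.117 carrying a Tet-off genotype D genome, dosed at nine 4-fold dilutions. A duplicate plate gave ATP-based viability (CC50).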
(In qPCR the cycle at which signal appears reflects the starting amount.)
Broadly, the EC50 is the concentration giving half of the maximal effect. Read a low EC50 as a more potent agent. Regarding `COc1ccc(-n2c(C(=O)NCc3ccccc3)c3n(c2=O)CCN(C(=O)c2cc4c(C)cccc4[nH]2)C3)cc1` [Example 55, N-benzyl-2-(4-methoxyphenyl)-7-(4-methyl-1H-indole-2-carbonyl)-3-oxo-6,8-dihydro-5H-imidazo[1,5-a]pyrazine-1-carboxamide], the EC50 fell in the range of 500 to 5000 nM. As to `C[C@@H](NC(=O)c1c2n(c(=O)n1-c1ccc(OC3CC3)cc1)C[C@H](C)N(C(=O)c1ccc(Br)c(Cl)c1)C2)c1ccccc1` (mixture of isomers) [Example 332, (6SR)-7-(4-bromo-3-chloro-benzoyl)-2-[4-(cyclopropoxy)phenyl]-6-methyl-3-oxo-N-[(1R)-1-phenylethyl]-6,8-dihydro-5H-imidazo[1,5-a]pyrazine-1-carboxamide], the EC50 is 100 to 500 nM. The figure for `COc1ccc(-n2c(C(=O)NC3(CO)CC3)c3n(c2=O)CCN(C(=O)c2ccc(Cl)c(Cl)c2)C3)cc1` [Example 106, 7-(3,4-dichlorobenzoyl)-N-[1-(hydroxymethyl)cyclopropyl]-2-(4-methoxyphenyl)-3-oxo-6,8-dihydro-5H-imidazo[1,5-a]pyrazine-1-carboxamide] is above 5000 nM. With `C[C@H](NC(=O)c1c2n(c(=O)n1-c1ccc(-n3cccn3)cc1)CCN(C(=O)c1ccc(Br)c(Cl)c1)C2)c1ccccc1F` (stereo in doubt) [Example 409, 7-(4-bromo-3-chloro-benzoyl)-3-oxo-2-(4-pyrazol-1-ylphenyl)-N-[rac-(1S)-1-(2-fluorophenyl)ethyl]-6,8-dihydro-5H-imidazo[1,5-a]pyrazine-1-carboxamide], the EC50 fell in the range of 500 to 5000 nM. With `C[C@H](Oc1ccc([C@@H](C)NC(=O)c2c3n(c(=O)n2-c2ccc(OC4CC4)cc2)CCN(C(=O)c2ccc(Br)c(Cl)c2)C3)c(F)c1)C(N)=O` (stereo in doubt) [Example 356, 7-(4-bromo-3-chloro-benzoyl)-2-[4-(cyclopropoxy)phenyl]-3-oxo-N-[rac-(1R)-1-[2-fluoro-4-[rac-(1S)-2-amino-1-methyl-2-oxo-ethoxy]phenyl]ethyl]-6,8-dihydro-5H-imidazo[1,5-a]pyrazine-1-carboxamide] the figure was 100 to 500 nM. With `CS(=O)(=O)c1cccc(-n2c(C(=O)NCc3ccccc3)c3n(c2=O)CCN(C(=O)c2ccc(Br)c(Cl)c2)C3)c1` [Example 46, N-benzyl-7-(4-bromo-3-chloro-benzoyl)-2-(3-methylsulfonylphenyl)-3-oxo-6,8-dihydro-5H-imidazo[1,5-a]pyrazine-1-carboxamide] the figure was above 5000 nM.

The compound `O=C(NCc1c(F)ccc2nccnc12)c1c2n(c(=O)n1-c1ccc(-n3cccn3)cc1)CCN(C(=O)c1ccc(Br)c(Cl)c1)C2` [Example 458, 7-(4-bromo-3-chloro-benzoyl)-N-[(6-fluoroquinoxalin-5-yl)methyl]-3-oxo-2-(4-pyrazol-1-ylphenyl)-6,8-dihydro-5H-imidazo[1,5-a]pyrazine-1-carboxamide] yielded an EC50 of 100 to 500 nM. The figure for `CC(NC(=O)c1c2n(c(=O)n1-c1ccc(OCC(F)(F)F)cc1)CCN(C(=O)c1ccc(Br)c(Cl)c1)C2)c1ccc(OC(F)(F)F)cc1F` (racemic) [Example 293, 7-(4-bromo-3-chloro-benzoyl)-3-oxo-N-[rac-(1S)-1-[2-fluoro-4-(trifluoromethoxy)phenyl]ethyl]-2-[4-(2,2,2-trifluoroethoxy)phenyl]-6,8-dihydro-5H-imidazo[1,5-a]pyrazine-1-carboxamide] is 500 to 5000 nM. In turn, `O=C(NCc1ccccc1)c1c2n(c(=O)n1-c1ccc(OC(F)F)cc1)CCN(C(=O)c1ccc(Cl)c(Cl)c1)C2` [Example 121, N-benzyl-7-(3,4-dichlorobenzoyl)-2-[4-(difluoromethoxy)phenyl]-3-oxo-6,8-dihydro-5H-imidazo[1,5-a]pyrazine-1-carboxamide] displayed an EC50 of 500 to 5000 nM. The figure for `N#Cc1ccc(-n2c(C(=O)NCc3ccccc3)c3n(c2=O)CCN(C(=O)c2ccc(Br)c(Cl)c2)C3)c(Cl)c1` [Example 351, N-benzyl-7-(4-bromo-3-chloro-benzoyl)-2-(2-chloro-4-cyano-phenyl)-3-oxo-6,8-dihydro-5H-imidazo[1,5-a]pyrazine-1-carboxamide] is above 5000 nM; for `COc1ccc(-n2c(C(=O)NCc3ccc(F)cc3)c3n(c2=O)CCN(C(=O)c2ccc(Cl)c(Cl)c2)C3)cc1` [Example 61, 7-(3,4-dichlorobenzoyl)-N-[(4-fluorophenyl)methyl]-2-(4-methoxyphenyl)-3-oxo-6,8-dihydro-5H-imidazo[1,5-a]pyrazine-1-carboxamide] it is 500 to 5000 nM. With `COc1ccc(-n2c(C(=O)N[C@@H]3CCc4ccccc43)c3n(c2=O)CCN(C(=O)c2ccc(Br)c(Cl)c2)C3)cc1` (racemic) [Example 75, 7-(4-bromo-3-chloro-benzoyl)-2-(4-methoxyphenyl)-3-oxo-N-[rac-(1R)-indan-1-yl]-6,8-dihydro-5H-imidazo[1,5-a]pyrazine-1-carboxamide] the figure was 500 to 5000 nM; with `CC1Cn2c(c(C(=O)N[C@H](C)c3ccccc3F)n(-c3ccc(OC4CC4)cc3)c2=O)CN1C(=O)c1ccc(Br)c(Cl)c1` (mixture of isomers) [Example 321, (6RS)-7-(4-bromo-3-chloro-benzoyl)-2-[4-(cyclopropoxy)phenyl]-N-[(1R)-1-(2-fluorophenyl)ethyl]-6-methyl-3-oxo-6,8-dihydro-5H-imidazo[1,5-a]pyrazine-1-carboxamide], 500 to 5000 nM. With `COc1ccc(-n2c(C(=O)N[C@H](C)c3ccccc3)c3n(c2=O)CCN(C(=O)c2ccc(Cl)c(Cl)c2)C3)cc1` (stereo in doubt) [Example 68, 7-(3,4-dichlorobenzoyl)-2-(4-methoxyphenyl)-3-oxo-N-[rac-(1R)-1-phenylethyl]-6,8-dihydro-5H-imidazo[1,5-a]pyrazine-1-carboxamide] the figure was 500 to 5000 nM; with `O=C(NCc1ccccc1)c1c2n(c(=O)n1-c1ccc(-n3cc(F)cn3)cc1)CCN(C(=O)c1ccc(Br)c(Cl)c1)C2` [Example 427, N-benzyl-7-(4-bromo-3-chloro-benzoyl)-2-[4-(4-fluoropyrazol-1-yl)phenyl]-3-oxo-6,8-dihydro-5H-imidazo[1,5-a]pyrazine-1-carboxamide], 100 to 500 nM; with `O=C(NCc1ccccc1)c1c2n(c(=O)n1-c1ccc(F)cc1)CCN(C(=O)c1ccc(Br)c(Cl)c1)C2` [Example 22, N-benzyl-7-(4-bromo-3-chloro-benzoyl)-2-(4-fluorophenyl)-3-oxo-6,8-dihydro-5H-imidazo[1,5-a]pyrazine-1-carboxamide], 500 to 5000 nM.

`N#Cc1cc(C(=O)N2CCn3c(c(C(=O)NCc4ccccc4-c4cccnn4)n(-c4ccc(OC5CC5)cc4)c3=O)C2)ccc1Br` [Example 445, 7-(4-bromo-3-cyano-benzoyl)-2-[4-(cyclopropoxy)phenyl]-3-oxo-N-[(2-pyridazin-3-ylphenyl)methyl]-6,8-dihydro-5H-imidazo[1,5-a]yprazine-1-carboxamide]: the half-maximal effective concentration (EC50) fell in the range of 100 to 500 nM. The figure for `O=C(NCc1ccccc1)c1c2n(c(=O)n1-c1ccc(OC3CC(F)(F)C3)cc1)CCN(C(=O)c1ccc(Br)c(Cl)c1)C2` [Example 350, N-benzyl-7-(4-bromo-3-chloro-benzoyl)-2-[4-(3,3-difluorocyclobutoxy)phenyl]-3-oxo-6,8-dihydro-5H-imidazo[1,5-a]pyrazine-1-carboxamide] is 500 to 5000 nM.
